Laboratory results published in patent publication US4965261A, “Substituted benzoxazinorifamycin derivative and antibacterial agent containing the same” (Kanegafuchi Kagaku Kogyo Kabushiki Kaisha, priority 1988, dated 1990).
Converted amounts (≈) assume the structure as drawn.

What was measured:
[1] = system: Bacillus subtilis IFO 3134; assay: Antibacterial activity, standard method of Japan Society of Chemotherapy (Table 2); type: cell-based; conditions: IFO3134, read-out: Minimal inhibitory concentration
Excerpt: (§1) Derivative No. in Table 2 corresponds to derivative No. in Table 1.

[2] = system: Mycobacterium smegmatis ATCC 607; assay: as above; type: cell-based; conditions: Mycolicibacterium smegmatis, ATCC607, read-out: Minimal inhibitory concentration
Excerpt: as §1

[3] = system: Micrococcus luteus IFO 12708; assay: as above; type: cell-based; conditions: IFO12708, read-out: Minimal inhibitory concentration
Excerpt: as §1

[4] = system: Klebsiella pneumoniae IFO 3512; assay: as above; type: cell-based; conditions: IFO3512, read-out: Minimal inhibitory concentration
Excerpt: as §1

[5] = system: Escherichia coli IFO 12734; assay: as above; type: cell-based; conditions: IFO12734, read-out: Minimal inhibitory concentration
Excerpt: as §1

[6] = system: Staphylococcus aureus IFO 12732; assay: as above; type: cell-based; conditions: IFO12732, read-out: Minimal inhibitory concentration
Excerpt: as §1

[7] = system: Mycobacterium tuberculosis H37 Rv; assay: Therapeutic effect on mice experimentally infected with tuberculosis (FIG. 1, groups of 20 mice); conditions: oral, 200 μg/mouse, once a day, six days a week
Excerpt: In FIG. 1, the point, a, means the time that mice were infected, and the point, b, means the time that the treatment started.

[8] = system: Mycobacterium tuberculosis H37 Rv; assay: Antibacterial activity against a tubercle bacillus, two-fold dilution in Kirchner liquid medium; conditions: Table 3; Kirchner medium with 10% bovine serum, 37° C., 4 weeks

## CCOc1c(N2CCN(CC(C)C)CC2)ccc2nc3c4c5c6c(C)c(O)c4c(=O)c(c-3oc12)NC(=O)C(C)=CC=CC(C)C(O)C(C)C(O)C(C)C(OC(C)=O)C(C)C(OC)C=COC(C)(O6)C5=O (centres unmarked) [Derivative No. 8]
[1]
  MIC: ≤ 0.02 µg/mL
[2]
  MIC: 0.63 µg/mL (≈ 0.65 µM)
[3]
  MIC: ≤ 0.02 µg/mL
[4]
  MIC: > 10 µg/mL
[5]
  MIC: > 10 µg/mL
[6]
  MIC: ≤ 0.02 µg/mL
[7]
  therapeutic effect as compared with rifampicin and derivative A: excellent therapeutic effect as compared with rifampicin
[8]
  Minimal inhibitory concentration: 0.07 µg/mL (≈ 0.0722 µM)
